Experimental data published in publication PMC8113459, “Selective inhibition of cullin 3 neddylation through covalent targeting DCN1 protects mice from acetaminophen-induced liver toxicity” (Nature Communications, 2021).
“And” between values parts separate entries of the source, which are not always exact repeats. Equal values may be shown once.

Columns and labels:
Assay type in all cases: cell-based, human
KYSE70 cells = assay: Cell viability assay (WST-8), KYSE70; details: for cell viability relative to control: replicates
Method: (§1) Cell viability assay was performed as previously described. The effect of DCN1 inhibitors on cell growth was evaluated by a WST-8 [2-(2-methoxy-4-nitrophenyl)-3-(4-nitrophenyl)-5-(2,4-disulfophenyl)-2H-tetrazolium, monosodium salt assay (Dojindo Molecular Technologies, Inc). Cells (2000–3000 cells in each well) were seeded in 96-well tissue culture plates in medium (100 μL) and treated with serial dilution of DCN1 inhibitors for 3 days. At the end of incubation, WST-8 dye (20 μL) was added to each well and incubated for 1–3 h, then the absorbance was measured in a microplate reader (Molecular Devices) at 450 nm. Cell growth inhibition was evaluated as the ratio of the absorbance of the sample to that of the control. The values were inserted into Prism software, and the curves and the EC50 values were produced by Prism software.

[1] = Cell viability assay (WST-8), KYSE70; details: human, KYSE70 cells, replicates, read-out: cell viability relative to control
Method: as §1

[2] = tested on: neddylation of cullin 1, 2, 4A, 4B, and 5; assay: Western blot, neddylation of other cullin members
Method: (§2) Western blotting was performed as described previously. Treated cells were lysed by RIPA buffer supplemented with protease inhibitor. The expression level of indicated proteins was examined by immunoblotting analysis and GAPDH was used as the loading control. Antibodies were purchased commercially: cullin 1 (sc-17775, 1:500 dilution) and cullin 2 (sc-166506, 1:500 dilution) from Santa Cruz Biotech (Santa Cruz, CA); cullin 4A (PA5-14542, 1:1000 dilution), cullin 4B (PA5-50647, 1:1000 dilution), and DCN3 (DCUN1D3, PA5-44000, 1:1000 dilution) from Thermo Fisher Scientific (Wayne, MI); cullin 3 (2759, 1:1000), NRF2 (12721, 1:1000 dilution), HO-1 (70081, 1:1000 dilution), and Bim (2819, 1:1000 dilution) from Cell Signaling Technology (Boston, MA); DCN1 (GWB-E3D700, 1:1000 dilution) from GenWay Biotech (San Diego, CA); and cullin 5 (A302-173A, 1:500 dilution) from Bethyl Labs (Montgomery, TX). Results are representative of two independent experiments.

MDA-MB-231 cells = assay: Cell viability assay (WST-8), MDA-MB-231; details: for cell viability relative to control: replicates
Method: as §1

[3] = Cell viability assay (WST-8), MDA-MB-231; details: human, MDA-MB-231 cells, replicates, read-out: cell viability relative to control
Method: as §1

[4] = Cell viability assay (WST-8), U2OS; details: human, U2OS cells, replicates, read-out: cell viability relative to control
Method: as §1

U2OS cells = assay: Cell viability assay (WST-8), U2OS; details: for cell viability relative to control: replicates
Method: as §1

four cancer cell lines = assay: Cell viability assay (WST-8), four cancer cell lines; details: concentrations up to 1000 nM, 72 h
Method: as §1

neddylation of cullin 3 = assay: Western blot, cullin 3 neddylation in U2OS cells; details: U2OS, Fig. 6c
Method: as §2

HCT116 cells = assay: Cell viability assay (WST-8), HCT116; details: for cell viability relative to control: replicates
Method: as §1

[5] = Cell viability assay (WST-8), HCT116; details: human, HCT116 cells, replicates, read-out: cell viability relative to control
Method: as §1

NS(=O)(=O)OC[C@@H]1C[C@@H](n2ccc3c(N[C@H]4CCc5ccccc54)ncnc32)C[C@@H]1O [MLN4924]
EC50 (KYSE70 cells; Homo sapiens, KYSE-70, 72 h, cell line assigned from panel order, read-out: EC50, cell growth inhibition): 0.266 µM
cell viability relative to control (KYSE70 cells; conc 3, 72 h): 119.091 and 98.7603 and 92.6446
cell viability relative to control (KYSE70 cells; conc 10, 72 h): 116.984 and 100.041
cell viability relative to control (KYSE70 cells; conc 30, 72 h): 82.3967
cell viability relative to control (KYSE70 cells; conc 100, 72 h): 57.9752
cell viability relative to control (KYSE70 cells; conc 300, 72 h): 39.3388
cell viability relative to control (KYSE70 cells; conc 1000, 72 h): 29.2149
viability at 72 h ([1]; conc 10, 72 h): 110%
viability at 72 h ([1]; conc 30, 72 h): 76.4%
viability at 72 h ([1]; conc 100, 72 h): 59.5%
viability at 72 h ([1]; conc 300, 72 h): 41.9%
viability at 72 h ([1]; conc 1000, 72 h): 31%
inhibition of neddylation of cullin members ([2]; THLE2, Fig. 6b): potently inhibits neddylation of all cullins
time within which the neddylation of cullin 1 is effectively inhibited ([2]; U2OS, Fig. 6c): ≤ 30 min
EC50 (MDA-MB-231 cells; Homo sapiens, MDA-MB-231, 72 h, cell line assigned from panel order, read-out: EC50, cell growth inhibition): 0.154 µM
cell viability relative to control (MDA-MB-231 cells; conc 3, 72 h): 94.1379 and 99.1954
cell viability relative to control (MDA-MB-231 cells; conc 10, 72 h): 109.785 and 104.516
cell viability relative to control (MDA-MB-231 cells; conc 30, 72 h): 84.086 and 84.3011
cell viability relative to control (MDA-MB-231 cells; conc 100, 72 h): 59.6774 and 48.8172
cell viability relative to control (MDA-MB-231 cells; conc 300, 72 h): 28.4946 and 44.3011
cell viability relative to control (MDA-MB-231 cells; conc 1000, 72 h): 18.2796 and 26.5591
viability at 72 h ([3]; conc 3, 72 h): 106%
viability at 72 h ([3]; conc 10, 72 h): 98.2%
viability at 72 h ([3]; conc 30, 72 h): 78.8%
viability at 72 h ([3]; conc 100, 72 h): 43.4%
viability at 72 h ([3]; conc 300, 72 h): 25.5%
viability at 72 h ([3]; conc 1000, 72 h): 13.7%
viability at 72 h ([4]; conc 10, 72 h): 108%
viability at 72 h ([4]; conc 30, 72 h): 97.3%
viability at 72 h ([4]; conc 100, 72 h): 50.8%
viability at 72 h ([4]; conc 1000, 72 h): 21%
EC50 (U2OS cells; Homo sapiens, U2OS, 72 h, cell line assigned from panel order, read-out: EC50, cell growth inhibition): 0.209 µM
cell viability relative to control (U2OS cells; conc 3, 72 h): 108.902 and 87.9268 and 99.0244
cell viability relative to control (U2OS cells; conc 10, 72 h): 107.561 and 98.1707
cell viability relative to control (U2OS cells; conc 30, 72 h): 105.122 and 104.756
cell viability relative to control (U2OS cells; conc 100, 72 h): 49.6951 and 43.1707
cell viability relative to control (U2OS cells; conc 300, 72 h): 47.5122 and 35 and 24.2561
cell viability relative to control (U2OS cells; conc 1000, 72 h): 34.8293 and 26.6585
cytotoxicity / cell viability (four cancer cell lines): potently inhibits cell viability
time within which the neddylation of cullin 3 is effectively inhibited (neddylation of cullin 3): ≤ 30 min
EC50 (HCT116 cells; Homo sapiens, HCT-116, 72 h, cell line assigned from panel order, read-out: EC50, cell growth inhibition): 0.294 µM
cell viability relative to control (HCT116 cells; conc 3, 72 h): 93.0769 and 97.803
cell viability relative to control (HCT116 cells; conc 10, 72 h): 99.5045 and 108.03
cell viability relative to control (HCT116 cells; conc 30, 72 h): 98.1868 and 105.151
cell viability relative to control (HCT116 cells; conc 100, 72 h): 42.5676 and 63.1319 and 54.6212
cell viability relative to control (HCT116 cells; conc 300, 72 h): 39.0549 and 40.989
cell viability relative to control (HCT116 cells; conc 1000, 72 h): 32.8022 and 29.945
viability at 72 h ([5]; conc 3, 72 h): 103%
viability at 72 h ([5]; conc 10, 72 h): 118%
viability at 72 h ([5]; conc 30, 72 h): 106%
viability at 72 h ([5]; conc 300, 72 h): 26.5%
viability at 72 h ([5]; conc 1000, 72 h): 27.6%
